≈ marks a conversion by molar mass, not a printed value.
How the values were obtained:
[1] = test system: Apis mellifera; conditions: acute, mortality
[2] = test system: Canidae; conditions: chronic; duration: 1 years; oral; Dog Other; clinical signs
[3] = test system: Colinus virginianus
[4] = test system: Daphnia magna; conditions: chronic/long-term; duration: 21 days; reproduction
[5] = test system: Lepomis macrochirus; conditions: acute; duration: 96 hours; mortality
[6] = test system: Oncorhynchus mykiss; conditions: chronic/long-term; duration: 21 days
[7] = test system: Rattus norvegicus
[8] = test system: Tagia sp.; conditions: acute; mortality
[9] = test system: Aphidius rhopalosiphi; test: LR50; higher = less toxic; conditions: not reported; duration: 14 days; mortality
[10] = test system: Typhlodromus pyri; test: LR50; higher = less toxic; conditions: acute; duration: 14 days; mortality

`C#CCOC(=O)[C@@H](C)Oc1ccc(Oc2ncc(Cl)cc2F)cc1` [Clodinafop-propargyl] was tested, and the LD50 ([1]; dermal) was 40.9 µg/piece, the LD50 ([1]; duration: 48 hours, oral, unspecified) was over 93.7 µg/piece and the NOAEL [2] was 3.4 mg/kg-day. For the same molecule, the LC50 ([3]; acute, oral, diet, mortality) was over 980 mg/kg-day, the LD50 ([3]; acute, oral, mortality) was 1360 mg/kg and the NOEC ([3]; reproduction developmental) was 43 mg/kg-day. For the same molecule, the NOEC [4] was 0.23 mg/L, the LC50 [5] was 0.21 µg/mL (≈ 0.6 µM) and the NOEC [6] was 0.1 mg/L. The LD50 ([7]; acute, oral, M, mortality) was 1390 mg/kg, the NOAEL ([7]; chronic, duration: 2 years, oral, clinical signs) was 0.32 mg/kg-day and the NOAEL ([7]; developmental, development) was 5 mg/kg-day. The NOAEL ([7]; reproduction developmental, reproduction) was 4.63 mg/kg-day, the LC50 [8] was 197 mg/kg and the LR50 [9] was 3.1 g/ha. The LR50 [10] was 20 g/ha.

Source: EPA's ToxValDB 9.5 (doi:10.2903/j.efsa.2005.34ar)
